Results from ChEMBL document CHEMBL6109156, “Discovery of Dual PD-L1/HDAC3 Inhibitors for Tumor Immunotherapy” (J Med Chem, 2025).
Activity calls are given as the source filed them. No cut-off for these calls is given here.

How the values were obtained:
[1] = test system: B16-F10; assay: Induction of cell cycle arrest in mouse B16-F10 cells assessed as accumulation of cells at G0/G1 phase at 2 uM incubated for 48 hrs by PI staining based flow cytometry analysis (reference value: 70.09%); type: functional
[2] = test system: B16-F10; assay: Induction of apoptosis in mouse B16-F10 cells assessed as necrotic cells at 10 uM incubated for 48 hrs by Annexin V-FITC/PI staining based flow cytometry analysis (reference value: 2.24%); type: functional
[3] = test system: B16-F10; assay: Immunomodulatory activity in mouse B16-F10 cells implanted in C57BL/6J mouse assessed as percentage of CD3 positive CD4 positive cells in tumor at 20 mg/kg, ip administered once daily for 9 days by flow cytometric analysis (reference value: 0.20 %); type: functional; details: time 9 day
[4] = test system: B16-F10; assay: Induction of apoptosis in mouse B16-F10 cells assessed as necrotic cells at 4 uM incubated for 48 hrs by Annexin V-FITC/PI staining based flow cytometry analysis (reference value: 2.24%); type: functional
[5] = Toxicity in C57BL/6J mouse implanted with mouse B16-F10 cells assessed as spleen damage at 20 to 40 mg/kg, ip administered once daily for 9 days by H and E staining based analysis; type: organism-based; details: in vivo, 216 h, dose 20-40 mg/kg, time 9 day
[6] = test system: B16-F10; assay: Immunomodulatory activity in mouse B16-F10 cells implanted in C57BL/6J mouse assessed as percentage of CD3 positive CD8 positive cells in tumor at 20 mg/kg, ip administered once daily for 9 days by flow cytometric analysis (reference value: 0.44 %); type: functional; details: time 9 day
[7] = test system: A-375; assay: Antiproliferative activity against human A-375 cells assessed as cell viability incubated for 48 hrs by MTT assay; type: functional, cell-based
[8] = target: Histone deacetylase 1 (Homo sapiens, UniProt Q13547); assay: Inhibition of human recombinant HDAC1 using Ac-Leu-Gly-Lys (Ac)-AMC as substrate preincubated for 10 mins followed by substrate addition and measured after 45 mins by TECAN microtiter plate reader analysis
Sequence of Histone deacetylase 1 (Q13547 whole entry): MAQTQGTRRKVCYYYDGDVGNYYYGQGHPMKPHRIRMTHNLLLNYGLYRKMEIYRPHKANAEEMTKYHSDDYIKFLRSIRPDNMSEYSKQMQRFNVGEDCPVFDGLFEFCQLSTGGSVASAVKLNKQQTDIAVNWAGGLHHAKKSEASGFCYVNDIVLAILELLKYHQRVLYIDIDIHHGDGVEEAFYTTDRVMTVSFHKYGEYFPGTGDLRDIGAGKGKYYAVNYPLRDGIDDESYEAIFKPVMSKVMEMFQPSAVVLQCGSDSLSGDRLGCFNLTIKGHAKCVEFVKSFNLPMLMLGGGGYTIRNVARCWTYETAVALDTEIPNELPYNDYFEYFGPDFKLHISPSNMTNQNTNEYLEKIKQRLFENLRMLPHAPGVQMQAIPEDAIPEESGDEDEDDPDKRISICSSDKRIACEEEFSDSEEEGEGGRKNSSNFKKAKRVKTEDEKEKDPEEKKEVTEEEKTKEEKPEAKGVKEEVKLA

[9] = target: T1, Histone deacetylase 8 (Homo sapiens, UniProt Q9BY41); assay: Inhibition of human recombinant HDAC8 using Ac-Leu-Gly-Lys (Tfa)-AMC as substrate preincubated for 10 mins followed by substrate addition and measured after 45 mins by TECAN microtiter plate reader analysis
T1 sequence (Q9BY41 whole entry): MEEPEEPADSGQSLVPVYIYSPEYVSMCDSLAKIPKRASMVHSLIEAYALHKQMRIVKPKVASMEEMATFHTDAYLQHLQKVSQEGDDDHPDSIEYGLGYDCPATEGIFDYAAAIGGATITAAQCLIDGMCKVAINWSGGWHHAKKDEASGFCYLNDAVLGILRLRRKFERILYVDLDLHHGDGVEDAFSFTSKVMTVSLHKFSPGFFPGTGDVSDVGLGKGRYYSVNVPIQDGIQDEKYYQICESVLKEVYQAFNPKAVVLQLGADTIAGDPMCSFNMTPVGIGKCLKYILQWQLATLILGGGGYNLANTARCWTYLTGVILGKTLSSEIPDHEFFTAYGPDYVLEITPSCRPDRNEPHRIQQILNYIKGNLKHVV

[10] = test system: HepG2; assay: Antiproliferative activity against human HepG2 cells assessed as cell growth inhibition incubated for 48 hrs by MTT assay; type: functional, cell-based; details: HepG2, 48 h
[11] = test system: B16-F10; assay: Induction of cell cycle arrest in mouse B16-F10 cells assessed as accumulation of cells at S phase at 2 uM incubated for 48 hrs by PI staining based flow cytometry analysis (reference value: 24.04%); type: functional
[12] = Toxicity in C57BL/6J mouse implanted with mouse B16-F10 cells assessed as heart damage at 20 to 40 mg/kg, ip administered once daily for 9 days by H and E staining based analysis; type: organism-based; details: in vivo, 216 h, dose 20-40 mg/kg, time 9 day
[13] = test system: B16-F10; assay: Induction of apoptosis in mouse B16-F10 cells assessed as viable cells at 8 uM incubated for 48 hrs by Annexin V-FITC/PI staining based flow cytometry analysis (reference value: 92.3%); type: functional; details: read-out: Activity
[14] = test system: B16-F10; assay: Induction of apoptosis in mouse B16-F10 cells assessed as necrotic cells at 2 uM incubated for 48 hrs by Annexin V-FITC/PI staining based flow cytometry analysis (reference value: 2.24%); type: functional
[15] = Toxicity in C57BL/6J mouse implanted with mouse B16-F10 cells assessed as kidney damage at 20 to 40 mg/kg, ip administered once daily for 9 days by H and E staining based analysis; type: organism-based; details: in vivo, 216 h, dose 20-40 mg/kg, time 9 day
[16] = test system: MDA-MB-231; assay: Antiproliferative activity against human MDA-MB-231 cells assessed as cell growth inhibition incubated for 48 hrs by MTT assay; type: functional, cell-based; details: MDA-MB-231, 48 h
[17] = target: Histone deacetylase 3 (Homo sapiens, UniProt O15379); assay: Inhibition of human recombinant HDAC3 using Ac-Leu-Gly-Lys (Ac)-AMC as substrate at 0.1 uM preincubated for 10 mins followed by substrate addition and measured after 45 mins by TECAN microtiter plate reader analysis relative to control; details: time 55.0 min
Sequence of Histone deacetylase 3 (O15379 whole entry): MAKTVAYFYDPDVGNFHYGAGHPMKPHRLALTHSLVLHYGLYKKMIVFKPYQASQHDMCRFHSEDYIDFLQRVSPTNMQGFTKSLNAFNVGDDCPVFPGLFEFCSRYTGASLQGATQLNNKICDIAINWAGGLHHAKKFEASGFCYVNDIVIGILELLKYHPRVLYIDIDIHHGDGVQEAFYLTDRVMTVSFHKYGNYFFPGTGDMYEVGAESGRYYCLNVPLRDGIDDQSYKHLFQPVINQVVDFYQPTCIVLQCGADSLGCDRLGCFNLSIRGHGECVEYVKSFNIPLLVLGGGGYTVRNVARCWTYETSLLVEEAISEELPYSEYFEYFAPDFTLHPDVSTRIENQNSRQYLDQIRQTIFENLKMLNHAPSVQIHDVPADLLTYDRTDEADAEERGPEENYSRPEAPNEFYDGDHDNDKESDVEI

[18] = test system: B16-F10; assay: Induction of apoptosis in mouse B16-F10 cells assessed as viable cells at 1 uM incubated for 48 hrs by Annexin V-FITC/PI staining based flow cytometry analysis (reference value: 92.3%); type: functional; details: read-out: Activity
[19] = Toxicity in C57BL/6J mouse implanted with mouse B16-F10 cells assessed as liver damage at 20 to 40 mg/kg, ip administered once daily for 9 days by H and E staining based analysis; type: organism-based; details: in vivo, 216 h, dose 20-40 mg/kg, time 9 day
[20] = test system: B16-F10; assay: Induction of apoptosis in mouse B16-F10 cells assessed as late apoptotic cells at 2 uM incubated for 48 hrs by Annexin V-FITC/PI staining based flow cytometry analysis (reference value: 5.02 %); type: functional
[21] = test system: B16-F10; assay: Induction of apoptosis in mouse B16-F10 cells assessed as late apoptotic cells at 1 uM incubated for 48 hrs by Annexin V-FITC/PI staining based flow cytometry analysis (reference value: 5.02 %); type: functional
[22] = target: T2, Histone deacetylase 3 (Mus musculus) (UniProt O88895); assay: Inhibition of HDAC3 in mouse B16-F10 cells assessed as upregulation of Ac-H3 level incubated for 24 hrs by Western blotting analysis; type: cell-based; details: dose 1-8 µM
T2 sequence (whole entry): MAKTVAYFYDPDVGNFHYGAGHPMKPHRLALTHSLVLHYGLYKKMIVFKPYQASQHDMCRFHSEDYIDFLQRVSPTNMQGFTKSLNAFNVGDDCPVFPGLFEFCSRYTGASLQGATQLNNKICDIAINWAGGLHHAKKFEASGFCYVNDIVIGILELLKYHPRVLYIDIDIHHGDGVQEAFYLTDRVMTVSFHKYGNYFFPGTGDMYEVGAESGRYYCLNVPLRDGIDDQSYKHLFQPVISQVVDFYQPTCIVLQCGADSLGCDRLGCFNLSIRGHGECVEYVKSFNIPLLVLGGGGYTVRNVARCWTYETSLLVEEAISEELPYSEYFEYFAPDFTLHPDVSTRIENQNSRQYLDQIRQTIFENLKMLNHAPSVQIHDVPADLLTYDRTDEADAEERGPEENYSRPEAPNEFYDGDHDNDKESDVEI

[23] = test system: B16-F10; assay: Induction of apoptosis in mouse B16-F10 cells assessed as late apoptotic cells at 10 uM incubated for 48 hrs by Annexin V-FITC/PI staining based flow cytometry analysis (reference value: 5.02 %); type: functional

IC50 [8]: 2.23 µM
IC50 [9]: > 10 µM
IC50 [10]: 4 µM
IC50 [16]: 3.01 µM
inhibition [17]: 42%
inhibition [22]: Dose-dependent-effect
SMILES: CCCNNC(=O)CCCNCc1ccc(-c2cccc(-c3ccccc3)c2C)nc1OC
Activity [1]: 87.25%
Activity [2]: 1.04%
Activity [3]: 1.75%
Activity [4]: 4.08%
Activity [5]: Non-toxic
Activity [6]: 4.31%
Activity [7]: Active
Activity [11]: 7.79%
Activity [12]: Non-toxic
viability at 8 µM [13]: 53.6%
Activity [14]: 4.4%
Activity [15]: Non-toxic
viability at 1 µM [18]: 84.8%
Activity [19]: Non-toxic
Activity [20]: 14.1%
Activity [21]: 9.24%
Activity [23]: 14.8%
